Data set [1] is described as follows: Selectivity index, ratio of CC50 for African green monkey Vero cells to EC50 for Oropouche virus infected in Vero cells. Conditions: read-out: Ratio CC50/EC50. The format is toxicity, cell-based.
Data set [2] relates to Oropouche virus. Briefly: Antiviral activity against Oropouche virus infected in Vero cells incubated for 1 hr and measured after 3 days by crystal violet staining based analysis. The format is functional, organism-based.
In data set [3] the test system is Oropouche virus. Briefly: (§1) Inhibition of Oropouche virus N-terminal His-tagged fusion endonuclease expressed in Escherichia coli Rosetta (DE3) cells using FAM-TCT CTA GCA GTG GCG CC-TAM as DNA substrate measured every 60 secs for 60 mins by fluorescence based analysis.
Data set [4] in a line: Cytotoxicity against African green monkey Vero cells assessed as reduction in cell viability measured after 72 hrs by MTT assay. The format is toxicity, cell-based. The conditions noted are these: chlorocebus sabaeus. Background: Tetrazolium dyes change colour on reduction, which living cells bring about.
The nature of data set [5]: as §1.
The nature of data set [6]: Inhibition of Oropouche virus N-terminal His-tagged fusion endonuclease expressed in Escherichia coli Rosetta (DE3) cells using FAM-TCT CTA GCA GTG GCG CC-TAM as DNA substrate measured every 60 secs for 60 mins by FRET assay.

The source made the active and inactive calls. The rule behind the calls is not given here.

Turning to `Oc1cc(O)c2c(O)c3cc4ccccc4cc3nc2c1`, the selectivity ratio in data set [1] turned out to be 70.8. Moreover, the EC50 in data set [2] was determined as 21.6 µM. Further, in data set [3], the inhibition entry is “inactive”. In addition, the CC50 at 72 h in data set [4] is 1530 µM.

For the compound `COc1cc2[nH]c3c(OC)c(OC)ccc3c(=O)c2c(OC)c1OC` [CUSCULINE], the selectivity ratio in data set [1] turned out to be 49.6. In data set [2], this compound had an EC50 of 33 µM. The compound also displayed an IC50 in data set [5] of 1.4 µM. Besides, the CC50 at 72 h in data set [4] was determined as 1640 µM.

In the case of `COc1cc(O)c2c(c1)oc(=O)c1c3cc(O)c(O)cc3oc21` [WEDELOLACTONE], the EC50 in data set [2] is 18.9 µM. In data set [6], this compound gave a concentration for half-maximal inhibition (IC50) of 0.31 µM. In addition, the 50% cytotoxic concentration (CC50) at 72 h in data set [4] stood at 374 µM.

For orientation: EC50 means the concentration giving half of the maximal effect. As a reminder, the CC50 is the concentration giving 50% cytotoxicity. Broadly, the IC50 is the concentration that gives 50% inhibition.

For the origin of these results see ChEMBL document CHEMBL5576080, “Oropouche virus - The "Newest" invisible public enemy?” (Bioorg Med Chem, 2024).
